Calls of active or inactive are those of the source. No cut-off for these calls is given here.
How the values were obtained:
Mus musculus = species on record: Mus musculus; test: Inhibition of calcium (Ca2+) oscillations in Swiss-Webster mouse neocortical neurons at 10 uM by Fluo-3 dye based fluorimetric assay; assay type: functional
RAW264.7 [1] = test: Antiinflammatory activity in mouse RAW264.7 cells assessed as inhibition of LPS-induced nitric oxide production incubated for 24 hrs by Griess method; assay type: functional, cell-based; conditions: RAW264.7, 24 h
RAW264.7 [2] = test: Cytotoxicity against mouse RAW264.7 cells after 48 hrs by MTT assay; assay type: cell-based; conditions: raw264.7, 48 h
NCI-H460 = test: Cytotoxicity against human H460 cells at =>10 ug/mL; assay type: cell-based

| IC50 (RAW264.7 [1]) | SMILES | inhibition (Mus musculus) | Activity (RAW264.7 [2]) | Activity (NCI-H460) |
| --- | --- | --- | --- | --- |
|  | CCCCCCCC[C@H](C)C(=O)N1CCC[C@H]1C(=O)O[C@@H](C(=O)O[C@@H](C)C(=O)O)[C@@H](C)CC | inactive |  |  |
| 9.8 µM | CCCCCCC/C=C(\C)[C@@H](O)[C@@H](C)C(=O)N1CCC[C@H]1C(=O)OCC [ETHYL TUMONOATE A] | Active | Non-toxic | Non-toxic |
|  | CCCCCCCCC(C)[C@H](OC(C)=O)[C@H](C)C(=O)N1CCC[C@H]1C(=O)O (some centres not stated) | Active |  |  |
|  | CCCCCCC/C=C(\C)[C@@H](O)[C@@H](C)C(=O)N1CCC[C@H]1C(=O)O | Active |  |  |
